We go through two molecules from publication PMC9329436, “Optimization of the 4-anilinoquin(az)oline scaffold as epidermal growth factor receptor (EGFR) inhibitors for chordoma utilizing a toxicology profiling assay platform” (Scientific Reports, 2022).

Common to all, as to format: biochemical
Experiment [1] concerns the target 320 wild-type protein kinases (Homo sapiens, UniProt Q9H4B4). As to conditions: singlicate. The text has this:
(§1) Table S4. Profiling of two compounds at two concentrations against 320 wild-type protein kinases; singlicate measurement; Residual activities (% of control).

Experiment [2] has as its target 320 wild-type protein kinases (Homo sapiens, UniProt P29597). The note with it: kinase TYK2, singlicate.
Source text: as §1

Experiment [3] has as its target T1, 320 wild-type protein kinases (Homo sapiens, UniProt Q96L34).
T1 sequence (Q96L34 1-752): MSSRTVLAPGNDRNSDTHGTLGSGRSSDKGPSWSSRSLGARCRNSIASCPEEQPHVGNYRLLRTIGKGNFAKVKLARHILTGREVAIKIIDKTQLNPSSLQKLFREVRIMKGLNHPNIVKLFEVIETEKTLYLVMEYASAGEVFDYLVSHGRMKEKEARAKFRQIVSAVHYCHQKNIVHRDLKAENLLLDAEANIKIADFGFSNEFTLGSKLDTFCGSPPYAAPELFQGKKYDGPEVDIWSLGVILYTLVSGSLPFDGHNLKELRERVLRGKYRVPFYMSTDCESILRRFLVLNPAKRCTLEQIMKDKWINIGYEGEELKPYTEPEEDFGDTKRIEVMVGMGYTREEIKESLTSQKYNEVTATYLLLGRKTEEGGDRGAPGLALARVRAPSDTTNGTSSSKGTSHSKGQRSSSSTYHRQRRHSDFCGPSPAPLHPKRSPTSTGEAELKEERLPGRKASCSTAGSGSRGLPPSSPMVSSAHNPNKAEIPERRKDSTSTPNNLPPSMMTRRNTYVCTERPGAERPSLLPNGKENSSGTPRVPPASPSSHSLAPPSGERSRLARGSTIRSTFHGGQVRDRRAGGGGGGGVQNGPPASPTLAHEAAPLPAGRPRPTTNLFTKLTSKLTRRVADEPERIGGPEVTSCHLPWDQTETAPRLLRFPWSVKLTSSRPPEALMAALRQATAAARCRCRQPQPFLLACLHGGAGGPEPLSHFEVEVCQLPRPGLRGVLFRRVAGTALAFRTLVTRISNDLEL
As to conditions: singlicate.
Source text: as §1

Experiment [4] concerns the target 320 wild-type protein kinases (Homo sapiens, UniProt P53779). The note with it: singlicate.
Source text: as §1

The target in experiment [5] is 320 wild-type protein kinases (Homo sapiens, UniProt Q13557). As to conditions: CAMK2D, singlicate.
Chain of 320 wild-type protein kinases (Homo sapiens, UniProt Q13557) (Q13557 whole entry): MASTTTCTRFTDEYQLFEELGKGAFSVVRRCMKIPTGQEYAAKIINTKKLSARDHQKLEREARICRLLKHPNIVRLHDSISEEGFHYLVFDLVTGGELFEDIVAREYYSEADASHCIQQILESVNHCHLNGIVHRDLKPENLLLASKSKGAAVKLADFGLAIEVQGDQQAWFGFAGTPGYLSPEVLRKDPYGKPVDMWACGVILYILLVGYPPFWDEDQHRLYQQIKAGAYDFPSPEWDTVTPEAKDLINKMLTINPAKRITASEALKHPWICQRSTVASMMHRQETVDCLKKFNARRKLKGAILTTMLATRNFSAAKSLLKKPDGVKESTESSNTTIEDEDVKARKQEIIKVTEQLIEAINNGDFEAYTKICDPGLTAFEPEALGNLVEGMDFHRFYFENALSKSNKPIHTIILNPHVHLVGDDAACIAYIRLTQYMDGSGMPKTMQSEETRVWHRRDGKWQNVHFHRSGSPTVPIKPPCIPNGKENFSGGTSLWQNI
Source text: as §1

The target in experiment [6] is T2, 320 wild-type protein kinases (Homo sapiens, UniProt Q8TD19).
T2 sequence (Q8TD19 1-979): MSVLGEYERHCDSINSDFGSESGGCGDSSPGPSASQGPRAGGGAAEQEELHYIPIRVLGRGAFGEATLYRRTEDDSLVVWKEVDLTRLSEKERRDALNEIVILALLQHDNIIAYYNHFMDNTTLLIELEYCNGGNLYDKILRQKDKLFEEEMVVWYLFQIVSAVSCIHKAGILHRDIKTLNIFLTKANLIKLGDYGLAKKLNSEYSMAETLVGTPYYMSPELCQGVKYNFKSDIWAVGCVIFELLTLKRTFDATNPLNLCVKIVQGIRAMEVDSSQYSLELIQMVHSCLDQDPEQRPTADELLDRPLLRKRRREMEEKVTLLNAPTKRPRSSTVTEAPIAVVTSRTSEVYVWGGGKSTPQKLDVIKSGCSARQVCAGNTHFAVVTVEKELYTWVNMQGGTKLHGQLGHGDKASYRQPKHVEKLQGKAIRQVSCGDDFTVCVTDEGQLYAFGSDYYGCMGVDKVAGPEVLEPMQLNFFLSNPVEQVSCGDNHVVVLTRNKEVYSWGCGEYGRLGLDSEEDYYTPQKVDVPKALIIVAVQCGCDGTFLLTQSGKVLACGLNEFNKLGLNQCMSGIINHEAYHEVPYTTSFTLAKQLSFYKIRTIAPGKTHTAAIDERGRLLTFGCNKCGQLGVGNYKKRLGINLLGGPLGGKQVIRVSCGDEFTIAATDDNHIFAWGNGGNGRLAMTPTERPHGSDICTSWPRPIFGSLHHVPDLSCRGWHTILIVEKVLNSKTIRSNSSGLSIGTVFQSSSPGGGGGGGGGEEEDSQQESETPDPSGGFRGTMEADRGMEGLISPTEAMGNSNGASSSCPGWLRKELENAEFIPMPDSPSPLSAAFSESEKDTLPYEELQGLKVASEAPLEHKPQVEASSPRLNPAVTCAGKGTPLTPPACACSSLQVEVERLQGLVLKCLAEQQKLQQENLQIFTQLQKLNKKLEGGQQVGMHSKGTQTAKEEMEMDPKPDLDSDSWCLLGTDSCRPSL
The note with it: singlicate.
Source text: as §1

Experiment [7] concerns the target 320 wild-type protein kinases (Homo sapiens, UniProt P06493). As to conditions: singlicate.
Source text: as §1

Where two headings read alike, the source gives them in different places.

Chain of 320 wild-type protein kinases (Homo sapiens, UniProt P06493) (P06493 whole entry): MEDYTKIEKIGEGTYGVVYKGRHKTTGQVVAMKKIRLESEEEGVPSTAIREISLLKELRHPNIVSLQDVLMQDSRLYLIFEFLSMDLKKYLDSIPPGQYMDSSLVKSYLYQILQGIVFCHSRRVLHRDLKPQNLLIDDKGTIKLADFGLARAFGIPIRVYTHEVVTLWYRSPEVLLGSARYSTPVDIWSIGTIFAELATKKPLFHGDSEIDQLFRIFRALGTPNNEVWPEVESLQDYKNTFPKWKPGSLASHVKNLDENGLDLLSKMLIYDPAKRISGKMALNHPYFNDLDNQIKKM
Chain of 320 wild-type protein kinases (Homo sapiens, UniProt P53779) (P53779 whole entry): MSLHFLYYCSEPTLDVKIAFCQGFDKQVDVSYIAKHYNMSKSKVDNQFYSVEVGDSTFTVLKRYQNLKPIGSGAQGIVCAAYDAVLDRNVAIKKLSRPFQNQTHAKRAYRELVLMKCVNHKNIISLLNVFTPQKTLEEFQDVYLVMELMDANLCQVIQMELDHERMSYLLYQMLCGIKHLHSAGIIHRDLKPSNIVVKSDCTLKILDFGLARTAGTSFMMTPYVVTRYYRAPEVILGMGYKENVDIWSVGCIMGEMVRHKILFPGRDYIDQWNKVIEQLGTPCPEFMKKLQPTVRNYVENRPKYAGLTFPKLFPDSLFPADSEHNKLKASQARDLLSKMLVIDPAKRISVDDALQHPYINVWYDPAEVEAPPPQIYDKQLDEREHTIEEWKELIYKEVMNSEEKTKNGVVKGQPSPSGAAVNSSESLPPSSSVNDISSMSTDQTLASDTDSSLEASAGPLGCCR
Chain of 320 wild-type protein kinases (Homo sapiens, UniProt P29597) (P29597 whole entry): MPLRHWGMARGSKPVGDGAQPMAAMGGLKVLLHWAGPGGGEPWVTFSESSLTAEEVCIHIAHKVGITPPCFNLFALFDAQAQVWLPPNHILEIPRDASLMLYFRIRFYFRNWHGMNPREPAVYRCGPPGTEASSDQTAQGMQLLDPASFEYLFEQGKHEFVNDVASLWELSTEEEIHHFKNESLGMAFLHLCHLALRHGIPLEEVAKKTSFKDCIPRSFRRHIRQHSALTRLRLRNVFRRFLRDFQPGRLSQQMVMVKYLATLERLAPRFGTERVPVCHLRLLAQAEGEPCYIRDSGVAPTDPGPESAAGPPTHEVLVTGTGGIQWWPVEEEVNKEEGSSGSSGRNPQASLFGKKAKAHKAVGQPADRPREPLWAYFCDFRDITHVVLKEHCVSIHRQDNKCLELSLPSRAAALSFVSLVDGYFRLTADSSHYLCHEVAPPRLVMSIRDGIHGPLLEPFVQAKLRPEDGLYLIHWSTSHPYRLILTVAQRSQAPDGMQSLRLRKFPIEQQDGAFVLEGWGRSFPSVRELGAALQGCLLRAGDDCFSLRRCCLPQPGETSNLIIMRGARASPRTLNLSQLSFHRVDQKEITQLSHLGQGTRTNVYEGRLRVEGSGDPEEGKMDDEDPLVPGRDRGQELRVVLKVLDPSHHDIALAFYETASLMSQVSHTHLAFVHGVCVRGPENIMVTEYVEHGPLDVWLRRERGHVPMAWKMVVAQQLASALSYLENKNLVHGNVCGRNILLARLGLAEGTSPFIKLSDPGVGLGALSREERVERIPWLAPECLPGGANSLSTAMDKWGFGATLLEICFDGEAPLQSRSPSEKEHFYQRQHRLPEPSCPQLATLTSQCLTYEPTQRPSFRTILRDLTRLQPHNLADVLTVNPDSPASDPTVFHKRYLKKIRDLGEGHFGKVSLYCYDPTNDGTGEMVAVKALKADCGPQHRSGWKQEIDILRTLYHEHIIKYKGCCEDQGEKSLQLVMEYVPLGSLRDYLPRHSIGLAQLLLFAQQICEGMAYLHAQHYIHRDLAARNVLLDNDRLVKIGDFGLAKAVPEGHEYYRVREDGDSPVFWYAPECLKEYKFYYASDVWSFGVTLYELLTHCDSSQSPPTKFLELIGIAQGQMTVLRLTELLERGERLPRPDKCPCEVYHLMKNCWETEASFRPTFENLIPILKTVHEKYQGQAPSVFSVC
Chain of 320 wild-type protein kinases (Homo sapiens, UniProt Q9H4B4) (Q9H4B4 whole entry): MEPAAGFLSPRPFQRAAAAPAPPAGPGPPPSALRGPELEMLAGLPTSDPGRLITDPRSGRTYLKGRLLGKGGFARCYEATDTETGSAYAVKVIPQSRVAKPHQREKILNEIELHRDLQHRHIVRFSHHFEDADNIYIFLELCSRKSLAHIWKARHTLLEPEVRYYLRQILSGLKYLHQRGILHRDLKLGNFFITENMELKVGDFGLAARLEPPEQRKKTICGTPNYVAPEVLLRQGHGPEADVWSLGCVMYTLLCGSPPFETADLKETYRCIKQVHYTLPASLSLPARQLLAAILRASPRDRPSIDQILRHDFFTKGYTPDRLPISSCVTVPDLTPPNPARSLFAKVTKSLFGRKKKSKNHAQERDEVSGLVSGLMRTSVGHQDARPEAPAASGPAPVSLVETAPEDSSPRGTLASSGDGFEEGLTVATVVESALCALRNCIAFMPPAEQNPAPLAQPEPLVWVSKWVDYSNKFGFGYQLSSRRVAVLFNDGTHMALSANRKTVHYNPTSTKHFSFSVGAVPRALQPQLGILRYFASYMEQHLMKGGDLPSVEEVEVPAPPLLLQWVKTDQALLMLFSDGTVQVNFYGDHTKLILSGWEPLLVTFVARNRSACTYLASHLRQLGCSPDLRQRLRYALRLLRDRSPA

Turning to `C#Cc1cc(Nc2ncnc3cc(OC)c(OC)cc23)ccc1Cl` [Compound 45], the Residual activity is given as 98 % of control in experiment [1] (PLK3, 1.0E-06 M); 103 % of control in experiment [1] (PLK3, 1.0E-07 M); 115 % of control in experiment [3] (MARK4, 1.0E-06 M); 110 % of control in experiment [3] (MARK4, 1.0E-07 M); 89 % of control in experiment [4] (JNK3, 1.0E-06 M); 92 % of control in experiment [4] (JNK3, 1.0E-07 M). The Residual activity in experiment [5] (1.0E-06 M) is given as 95 % of control; in experiment [5] (1.0E-07 M), 91 % of control; in experiment [6] (NEK9, 1.0E-06 M), 91 % of control; in experiment [6] (NEK9, 1.0E-07 M) it was 111 % of control; in experiment [7] (CDK1/CycA2, 1.0E-06 M) it was 83 % of control; in experiment [7] (CDK1/CycA2, 1.0E-07 M), 83 % of control. Also, the Residual activity in experiment [7] (CDK1/CycB1, 1.0E-06 M) is 78 % of control; in experiment [7] (CDK1/CycB1, 1.0E-07 M), 89 % of control; in experiment [7] (CDK1/CycE1, 1.0E-06 M), 91 % of control; in experiment [7] (CDK1/CycE1, 1.0E-07 M) it was 97 % of control. Moreover, the “Residual activity, TYK2” value in experiment [2] (assay conc. 1.0E-06 M) was 114 % of control; in experiment [2] (assay conc. 1.0E-07 M) it was 96 % of control.
For `C#Cc1cc(Nc2ncnc3cc(I)ccc23)ccc1Cl` [Compound 41], the Residual activity in experiment [1] (PLK3, 1.0E-06 M) is given as 102 % of control; in experiment [1] (PLK3, 1.0E-07 M), 109 % of control; in experiment [3] (MARK4, 1.0E-06 M) it was 114 % of control; in experiment [3] (MARK4, 1.0E-07 M), 111 % of control; in experiment [4] (JNK3, 1.0E-06 M), 99 % of control; in experiment [4] (JNK3, 1.0E-07 M) it was 90 % of control. Besides, the Residual activity is on record as 89 % of control in experiment [5] (1.0E-06 M); 103 % of control in experiment [5] (1.0E-07 M); 115 % of control in experiment [6] (NEK9, 1.0E-06 M); 134 % of control in experiment [6] (NEK9, 1.0E-07 M); 77 % of control in experiment [7] (CDK1/CycA2, 1.0E-06 M); 91 % of control in experiment [7] (CDK1/CycA2, 1.0E-07 M). Further, the Residual activity in experiment [7] (CDK1/CycB1, 1.0E-06 M) is 79 % of control; in experiment [7] (CDK1/CycB1, 1.0E-07 M) it was 84 % of control; in experiment [7] (CDK1/CycE1, 1.0E-06 M) it was 101 % of control; in experiment [7] (CDK1/CycE1, 1.0E-07 M), 116 % of control. Moreover, the entries for the “Residual activity, TYK2” value in experiment [2] (assay conc. 1.0E-06 M) and in experiment [2] (assay conc. 1.0E-07 M) were 94 % of control and 101 % of control, respectively.
